From patent publication US20070104652A1, “Pharmaceutical spray formulation comprising a hydro fluor alkane and an acylated cyclodextrin” (priority 2003, published 2007)

Legend:
[1] = Solubility of peracetylated cyclodextrins in HFA propellants, assessed visually; type: physicochemical; settings: equilibrated one week, visual; for solubility in HFA 134a: room temperature; for solubility in HFA 227: HFA 227, room temperature
Description: The solubility of peracetylated cyclodextrins (alpha, beta and gamma) in HFA propellants was assessed visually in clear PET vials crimped with a continuous pMDI valve. Known amounts of cyclodextrins were weighed into the PET vials. Continuous valves were crimped on the vial, and HFAs were added under pressure to the required amount. The samples were left to equilibrate over one week and were visually inspected. The solubility of the modified cyclodextrin at room temperature was evaluated by discriminating between samples that were clear by opposition to those samples that still had solid particles in suspension.

[2] = Efficacy of peracetylated beta cyclodextrin as HFA drug suspension stabiliser (phase separation recorded photographically); type: physicochemical; settings: peracetylated β cyclodextrin at saturation level, phase separation much slower, suspension much finer, head space adhesion less
Description: First, reference samples of pure drugs in HFAs were prepared. Then samples with solubilised peracetylated beta (β) cyclodextrin and micronised drug were prepared. The concentration of drug in these samples was the same as in the reference samples. The cyclodextrin concentration was at saturation level.
The reference samples (pure drug) were prepared by weighing the drug in a PET vial. A valve was then crimped on the vial and propellant added under pressure. The vial was then sonicated for at least 15 minutes and left to equilibrate for one week.
The drug—cyclodextrin samples were prepared by weighing a known amount of drug in a PET vial. The vial was then crimped with a continuous valve. The solution of peracetylated beta (β) cyclodextrin was prepared thus: a large amount of cyclodextrin was placed in large metallic can, it was crimped and filled with one of the propellants. This can was left to equilibrate for at least a week at room temperature. When equilibration was reached, the saturated cyclodextrin solution was filtered through a […] PTFE filter into the PET vials containing the known drug amounts. This way the maximum amount of soluble cyclodextrin was used in the suspensions. The concentration of drugs in the vials was then calculated through accurate recording of the weights of propellant/cyclodextrin added.
The phase separation phenomenon present in both samples (pure drug and with the cyclodextrin) was then recorded photographically.

solubility in HFA 134a [1] | solubility in HFA 227 [1] | quality/stability of drug suspension with modified cyclodextrin versus pure drug sample ([2]; HFA 134a) | quality/stability of drug suspension with modified cyclodextrin versus pure drug sample ([2]; HFA 227) | Compound
above 1 % w/w | above 0.5 % w/w |  |  | CC(=O)OCC1OC2OC3C(COC(C)=O)OC(OC4C(COC(C)=O)OC(OC5C(COC(C)=O)OC(OC6C(COC(C)=O)OC(OC7C(COC(C)=O)OC(OC1C(OC(C)=O)C2OC(C)=O)C(OC(C)=O)C7OC(C)=O)C(OC(C)=O)C6OC(C)=O)C(OC(C)=O)C5OC(C)=O)C(OC(C)=O)C4OC(C)=O)C(OC(C)=O)C3OC(C)=O (stereo not drawn) [peracetylated alpha (α) cyclodextrin]
 |  | improved | much improved | CCCC1O[C@@H]2C[C@H]3[C@@H]4CCC5=CC(=O)C=C[C@]5(C)[C@H]4[C@@H](O)C[C@]3(C)[C@]2(C(=O)CO)O1 (some centres unmarked) [Budesonide]
 |  | much improved | far more stable | CC(C)(C)NCC(O)c1cc(O)cc(O)c1 (centres unmarked) [Terbutaline Sulphate]
above 1 % w/w | above 0.1 % w/w |  |  | peracetylated beta (β) cyclodextrin
